# Reference: ChEMBL document CHEMBL1201862, “PubChem BioAssay data set” (2004)
#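 The compound was tested at five concentrations on cells cultured in 96-well plates, with a 48-hour exposure period. Here, GI50 denotes the concentration required for 50% inhibition of growth.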 Calls of active or inactive are those of the source. Cut-off read from the data, not from the text of the source: active = GI50 up to about 1.1 µM and inactive = higher.
# Columns and labels:
# Assay in all cases: NCI-60 cell line screen, 48 h
# SNB-78 = system: SNB-78
# LXFL 529 = system: LXFL 529
# KM-20L2 = system: KM-20L2
# XF498 = system: XF498
# DMS-114 = system: DMS-114
# M19-MEL = system: M19-MEL
# DMS-273 = system: DMS-273
# HOP-18 = system: HOP-18
# RXF 631 = system: RXF 631
SMILES,GI50 (SNB-78),GI50 (LXFL 529),GI50 (KM-20L2),GI50 (XF498),GI50 (DMS-114),GI50 (M19-MEL),GI50 (DMS-273),GI50 (HOP-18),GI50 (RXF 631)
CCCCCCCCCCCCCCCC(=O)NCC(OCC)OCC,> 100 µM (inactive),> 100 µM (inactive),> 100 µM (inactive),> 100 µM (inactive),> 100 µM (inactive),> 100 µM (inactive),> 100 µM (inactive),> 100 µM (inactive),> 100 µM (inactive)
CC(=O)OC(C)(C)/C=C/C(=O)[C@](C)(O)[C@H]1[C@H](O)C[C@@]2(C)[C@@H]3CC=C4[C@@H](C[C@H](O)[C@H](O)C4(C)C)[C@]3(C)C(=O)C[C@]12C,0.453 µM (active),0.347 µM (active),0.513 µM (active),0.422 µM (active),0.324 µM (active),0.515 µM (active),0.421 µM (active),1.05 µM (active),0.679 µM (active)
C/C(O)=C1\CC2CN3CCc4c([nH]c5ccccc45)C3CC2CC1=O (stereo not given),32.9 µM (inactive),34.4 µM (inactive),92 µM (inactive),32 µM (inactive),46.2 µM (inactive),–,57.4 µM (inactive),52.8 µM (inactive),–
CC(C)(C)N/N=C(\C(=O)Nc1nnc(S)[nH]1)C1C(=O)Nc2ccccc2[S+]1[O-] (stereo not given),> 100 µM (inactive),> 100 µM (inactive),> 100 µM (inactive),> 100 µM (inactive),> 100 µM (inactive),> 100 µM (inactive),> 100 µM (inactive),> 100 µM (inactive),> 100 µM (inactive)
N#C/N=C1\NC(Cc2ccccc2)C(=O)N1CCc1c[nH]c2ccccc12 (stereo not given),21.8 µM (inactive),30.1 µM (inactive),–,27.4 µM (inactive),29.3 µM (inactive),30.1 µM (inactive),27.7 µM (inactive),–,–
CCOC(=O)c1nn2c(nc1=O)sc1ccc3ccccc3c12,> 100 µM (inactive),> 100 µM (inactive),> 100 µM (inactive),–,> 100 µM (inactive),> 100 µM (inactive),> 100 µM (inactive),> 100 µM (inactive),–
O=C(NC(=O)c1cc2cc(Br)cc(Br)c2oc1=O)Oc1ccccc1,> 100 µM (inactive),> 100 µM (inactive),> 100 µM (inactive),37.4 µM (inactive),65.2 µM (inactive),> 100 µM (inactive),> 100 µM (inactive),> 100 µM (inactive),–
Cc1cc(C)nc(NS(=O)(=O)c2ccc(NC(=O)c3cccc4c(Nc5ccc(S(=O)(=O)N=C(N)N)cc5)c5ccc(Cl)cc5nc34)cc2)n1,40.6 µM (inactive),27.6 µM (inactive),59 µM (inactive),> 100 µM (inactive),45.7 µM (inactive),53.7 µM (inactive),–,–,28.6 µM (inactive)
COC(=O)[C@H]1COC(=S)N1C(=O)[C@@H](C)[C@H](O)C(C)C,> 100 µM (inactive),> 100 µM (inactive),> 100 µM (inactive),> 100 µM (inactive),84.7 µM (inactive),> 100 µM (inactive),> 100 µM (inactive),> 100 µM (inactive),> 100 µM (inactive)
O=C(CCc1nnc(S)[nH]1)Nc1cc(Cl)ccc1Cl,–,> 100 µM (inactive),> 100 µM (inactive),–,> 100 µM (inactive),> 100 µM (inactive),> 100 µM (inactive),> 100 µM (inactive),> 100 µM (inactive)
COC(=O)C(C(=O)C(=O)Nc1ccc(N)cc1[N+](=O)[O-])c1nc2ccc(Cl)cc2nc1O (stereo not given),> 100 µM (inactive),–,> 100 µM (inactive),70.8 µM (inactive),> 100 µM (inactive),> 100 µM (inactive),> 100 µM (inactive),72.3 µM (inactive),–
C[C@]12CCc3nonc3C1CC[C@@H]1C2CC[C@]2(C)NC(=O)CCC12 (stereo not given in full),> 100 µM (inactive),> 100 µM (inactive),> 100 µM (inactive),> 100 µM (inactive),–,> 100 µM (inactive),> 100 µM (inactive),> 100 µM (inactive),> 100 µM (inactive)
O=C(CC1Sc2ccccc2NC1=O)Nc1cc(Cl)ccc1Cl (stereo not given),> 100 µM (inactive),> 100 µM (inactive),> 100 µM (inactive),–,> 100 µM (inactive),> 100 µM (inactive),> 100 µM (inactive),–,> 100 µM (inactive)
COC(=O)C(c1n[nH]c2ccccc12)C(C(=O)OC)c1n[nH]c2ccccc12 (stereo not given),38.1 µM (inactive),26.2 µM (inactive),> 100 µM (inactive),41.8 µM (inactive),29.4 µM (inactive),> 100 µM (inactive),–,59.2 µM (inactive),> 100 µM (inactive)
Nc1ccc(C(c2ccccc2)(c2ccccc2)c2ccccc2)cc1,34.4 µM (inactive),37.1 µM (inactive),–,4.24 µM (inactive),64 µM (inactive),55.8 µM (inactive),50.1 µM (inactive),–,47 µM (inactive)
COc1ccc(C2C(Cl)C(=O)N2NC(=O)c2ccc(NC(C)=O)cc2)cc1 (stereo not given),> 100 µM (inactive),> 100 µM (inactive),> 100 µM (inactive),> 100 µM (inactive),–,> 100 µM (inactive),> 100 µM (inactive),–,–
O=C1c2ccccc2-c2ccccc2C(=O)C1(Br)Br,8.11 µM (inactive),7.96 µM (inactive),16.9 µM (inactive),–,15.2 µM (inactive),8.69 µM (inactive),15.6 µM (inactive),13.4 µM (inactive),–
ClCCNCCNCCCl.ClCCNCCNCCCl.[O-][Cl+3]([O-])([O-])O,44.6 µM (inactive),17.2 µM (inactive),67.3 µM (inactive),–,23.9 µM (inactive),27.2 µM (inactive),27.5 µM (inactive),24.3 µM (inactive),–
